Results as given in patent publication US9751890B2, “Heteroaryl derivatives as CFTR modulators” (Vertex Pharmaceuticals Incorporated, priority 2008, dated 2017).

Biological target: T1, ΔF508-CFTR (Homo sapiens, UniProt P13569, DEL508-508)
T1 construct: expressed in transfected cells
Experiment: Membrane potential optical assay for ΔF508-CFTR correction (single-addition HTS format)
Format: cell-based
Conditions: NIH3T3 mouse fibroblasts stably expressing ΔF508-CFTR; 16-24 hrs with compound; activation with 10 μM forskolin and 20 μM genistein; read-out: BinnedMaxEfficacy (PercentActivity)
Excerpt: Membrane potential optical methods for assaying ΔF508-CFTR modulation properties of compounds.
The assay utilizes fluorescent voltage sensing dyes to measure changes in membrane potential using a fluorescent plate reader (e.g., FLIPR III, Molecular Devices, Inc.) as a readout for increase in functional ΔF508-CFTR in NIH 3T3 cells. The driving force for the response is the creation of a chloride ion gradient in conjunction with channel activation by a single liquid addition step after the cells have previously been treated with compounds and subsequently loaded with a voltage sensing dye.
To identify small molecules that correct the trafficking defect associated with ΔF508-CFTR; a single-addition HTS assay format was developed. Assay Plates containing cells are incubated for ˜2-4 hours in tissue culture incubator at 37° C., 5% CO2, 90% humidity. Cells are then ready for compound exposure after adhering to the bottom of the assay plates.
The cells were incubated in serum-free medium for 16-24 hrs in tissue culture incubator at 37° C., 5% CO2, 90% humidity in the presence or absence (negative control) of test compound. The cells were subsequently rinsed 3× with Krebs Ringers solution and loaded with a voltage sensing redistribution dye. To activate ΔF508-CFTR, 10 μM forskolin and the CFTR potentiator, genistein (20 μM), were added along with Cl^−-free medium to each well. The addition of Cl^−-free medium promoted Cl^− efflux in response to ΔF508-CFTR activation and the resulting membrane depolarization was optically monitored using voltage sensor dyes.
Bath Solution #1: (in mM) NaCl 160, KCl 4.5, CaCl2 2, MgCl2 1, HEPES 10, pH 7.4 with NaOH.
Chloride-free bath solution: Chloride salts in Bath Solution #1 are substituted with gluconate salts.
NIH3T3 mouse fibroblasts stably expressing ΔF508-CFTR are used for optical measurements of membrane potential. The cells are maintained at 37° C. in 5% CO2 and 90% humidity in Dulbecco's modified Eagle's medium supplemented with 2 mM glutamine, 10% fetal bovine serum, 1×NEAA, β-ME, 1× pen/strep, and 25 mM HEPES in 175 cm^2 culture flasks. For all optical assays, the cells were seeded at ˜20,000/well in 384-well matrigel-coated plates and cultured for 2 hrs at 37° C. before culturing at 27° C. for 24 hrs. for the potentiator assay. For the correction assays, the cells are cultured at 27° C. or 37° C. with and without compounds for 16-24 hours.

T1 sequence (P13569 with tags, fused parts or gaps DEL508-508): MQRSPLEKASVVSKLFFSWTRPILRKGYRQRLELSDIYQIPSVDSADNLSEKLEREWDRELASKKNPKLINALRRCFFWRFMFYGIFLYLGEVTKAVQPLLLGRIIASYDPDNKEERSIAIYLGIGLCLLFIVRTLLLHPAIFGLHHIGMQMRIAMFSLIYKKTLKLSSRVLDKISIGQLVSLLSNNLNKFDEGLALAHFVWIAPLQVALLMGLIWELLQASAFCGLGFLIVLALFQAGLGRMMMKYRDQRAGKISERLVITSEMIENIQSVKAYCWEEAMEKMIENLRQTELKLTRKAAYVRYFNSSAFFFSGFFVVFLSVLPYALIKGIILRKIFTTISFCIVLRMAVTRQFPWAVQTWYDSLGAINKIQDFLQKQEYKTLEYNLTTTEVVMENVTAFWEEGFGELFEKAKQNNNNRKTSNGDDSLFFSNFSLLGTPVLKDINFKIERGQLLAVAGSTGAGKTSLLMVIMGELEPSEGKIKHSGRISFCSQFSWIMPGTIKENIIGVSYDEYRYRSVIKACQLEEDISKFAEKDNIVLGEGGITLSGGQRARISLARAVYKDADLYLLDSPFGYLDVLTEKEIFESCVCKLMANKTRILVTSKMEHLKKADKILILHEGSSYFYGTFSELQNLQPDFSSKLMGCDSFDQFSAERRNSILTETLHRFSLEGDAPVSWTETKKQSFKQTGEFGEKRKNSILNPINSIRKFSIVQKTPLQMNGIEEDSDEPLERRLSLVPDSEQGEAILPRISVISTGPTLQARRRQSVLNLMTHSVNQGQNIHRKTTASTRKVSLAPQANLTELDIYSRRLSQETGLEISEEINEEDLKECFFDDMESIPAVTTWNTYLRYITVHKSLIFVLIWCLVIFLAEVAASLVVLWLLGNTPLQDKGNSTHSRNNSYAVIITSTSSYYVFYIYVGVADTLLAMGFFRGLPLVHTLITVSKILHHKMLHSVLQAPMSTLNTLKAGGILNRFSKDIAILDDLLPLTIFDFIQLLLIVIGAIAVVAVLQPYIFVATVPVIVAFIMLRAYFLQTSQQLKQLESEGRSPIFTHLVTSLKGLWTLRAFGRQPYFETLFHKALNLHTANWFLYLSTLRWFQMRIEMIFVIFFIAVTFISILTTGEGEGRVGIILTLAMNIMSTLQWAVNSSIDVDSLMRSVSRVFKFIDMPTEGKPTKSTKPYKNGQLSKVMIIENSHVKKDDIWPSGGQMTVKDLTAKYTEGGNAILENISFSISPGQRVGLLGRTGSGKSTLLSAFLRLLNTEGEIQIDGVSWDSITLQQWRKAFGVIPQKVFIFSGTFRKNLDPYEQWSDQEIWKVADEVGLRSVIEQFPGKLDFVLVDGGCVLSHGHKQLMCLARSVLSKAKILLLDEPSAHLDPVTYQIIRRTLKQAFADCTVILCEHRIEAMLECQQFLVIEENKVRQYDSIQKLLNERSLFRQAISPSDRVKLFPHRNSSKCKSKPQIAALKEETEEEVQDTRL

| Emax [%] | Structure (SMILES) |
| --- | --- |
| 25 to 100 | Cc1cc(O)nc(NC(=O)C2(c3ccc4c(c3)OCO4)CC2)n1 [Compound 35, 1-(benzo[d][1,3]dioxol-5-yl)-N-(4-hydroxy-6-methylpyrimidin-2-yl)cyclopropanecarboxamide] |
| > 100 | O=C(Nc1ccnc(Cc2ccccc2)c1)C1(c2ccc3c(c2)OCO3)CC1 [Compound 36, 1-(benzo[d][1,3]dioxol-5-yl)-N-(2-benzylpyridin-4-yl)cyclopropanecarboxamide] |
| > 100 | O=C(Nc1ccc(Cc2ccccc2Cl)nc1)C1(c2ccc3c(c2)OCO3)CC1 [Compound 37, 1-(benzo[d][1,3]dioxol-5-yl)-N-(6-(2-chlorobenzyl)pyridin-3-yl)cyclopropanecarboxamide] |
| 25 to 100 | Cc1ncc(NC(=O)C2(c3ccc4c(c3)OCO4)CC2)cc1-c1cccc(C(=O)O)c1 [Compound 38, 3-(5-(1-(benzo[d][1,3]dioxol-5-yl)cyclopropanecarboxamido)-2-methylpyridin-3-yl)benzoic acid] |
| 25 to 100 | Cc1ncc(NC(=O)C2(c3ccc4c(c3)OCO4)CC2)cc1-c1ccc(C(N)=O)cc1 [Compound 39] |
| > 100 | Cc1ncc(NC(=O)C2(c3ccc4c(c3)OCO4)CC2)cc1-c1cccc(CO)c1 [Compound 40] |
| 25 to 100 | O=C(N(c1ccnc(C(F)(F)F)c1)c1ccccn1)C1(c2ccc3c(c2)OCO3)CC1 [Compound 41, 1-(benzo[d][1,3]dioxol-5-yl)-N-(pyridin-2-yl)-N-(2-(trifluoromethyl)pyridin-4-yl)cyclopropanecarboxamide] |
| > 100 | Cc1ncc(NC(=O)C2(c3ccc4c(c3)OCO4)CC2)cc1-c1ccccc1 [Compound 42, 1-(benzo[d][1,3]dioxol-5-yl)-N-(6-methyl-5-phenylpyridin-3-yl)cyclopropanecarboxamide] |
| > 100 | COc1ccccc1Nc1ccc(NC(=O)C2(c3ccc4c(c3)OCO4)CC2)cn1 [Compound 43, 1-(benzo[d][1,3]dioxol-5-yl)-N-(6-(2-methoxyphenylamino)pyridin-3-yl)cyclopropanecarboxamide] |
| 25 to 100 | O=C(Nc1ccc(Cc2ccccc2)nn1)C1(c2ccc3c(c2)OCO3)CC1 [Compound 44] |
| 25 to 100 | Cc1cnc(NC(=O)C2(c3ccc4c(c3)OC(F)(F)O4)CC2)nc1-c1cccc(C(=O)O)c1 [Compound 45, 3-(2-(1-(2,2-difluorobenzo[d][1,3]dioxol-5-yl)cyclopropanecarboxamido)-5-methylpyrimidin-4-yl)benzoic acid] |
| 25 to 100 | O=C(Nc1ccc(Cc2ccccc2Cl)nn1)C1(c2ccc3c(c2)OCO3)CC1 [Compound 46] |
| > 100 | COc1ccccc1Cc1cc(NC(=O)C2(c3ccc4c(c3)OCO4)CC2)ccn1 [Compound 47] |
